Read-outs that look alike come from different tables or passages of the source.
Biological target: T1, IRAK4 (Homo sapiens, UniProt Q9NWZ3)
T1 construct: Degradation of IRAK4 in OCI-LY10 was quantitatively measured using Meso Scale Discovery technology; endogenous in cells; host or cells: OCI-LY10
T1 sequence (Q9NWZ3 1-460): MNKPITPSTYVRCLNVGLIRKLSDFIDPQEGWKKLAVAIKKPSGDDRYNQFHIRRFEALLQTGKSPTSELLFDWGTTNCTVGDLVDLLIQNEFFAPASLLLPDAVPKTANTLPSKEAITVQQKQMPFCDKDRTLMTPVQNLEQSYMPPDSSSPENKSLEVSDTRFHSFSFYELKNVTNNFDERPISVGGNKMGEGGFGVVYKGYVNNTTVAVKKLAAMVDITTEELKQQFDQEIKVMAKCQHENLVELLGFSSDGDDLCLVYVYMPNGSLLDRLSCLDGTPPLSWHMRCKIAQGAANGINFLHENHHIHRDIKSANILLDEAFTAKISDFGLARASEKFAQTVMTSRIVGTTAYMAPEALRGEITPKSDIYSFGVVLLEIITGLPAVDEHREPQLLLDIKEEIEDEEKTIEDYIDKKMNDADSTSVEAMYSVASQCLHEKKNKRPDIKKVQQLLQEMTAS
Assay: IRAK4 MSD Degradation in OCI-LY10
Format: cell-based
Settings: OCI-LY10 cells, MSD
Summary of the method: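 DC50, from a three-parameter logistic fit and reported as letter bins A (<0.01 μM), B, C, D (>0.2 μM or not tested), reflects IRAK4 loss measured by MSD electrochemiluminescence in OCI-LY10 lysates. Treatment: 8 doses, 1:3 steps, top 1 to 10 μM, 4 to 24 h, 37 °C.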

[1] = 4 hrs incubation, read-out: IRAK4 degradation in OCI-LY10 at 4 hrs: DC50
[2] = 24 hrs incubation, read-out: IRAK4 degradation in OCI-LY10 at 24 hrs: DC50

| Compound | DC50 [1] [nM] | DC50 [2] [nM] |
| --- | --- | --- |
| Cn1c(=O)n(C2CCC(=O)NC2=O)c2cccc(C#CCOC3CCN(C[C@H]4CC[C@H](n5cc(NC(=O)c6cnn7ccc(N8C[C@H]9C[C@@H]8CO9)nc67)c(Cl)n5)CC4)CC3)c21 (stereo partly shown) [I-167] | > 200 | 10 to 100 |
| Cc1nn([C@H]2CC[C@H](CN3CCC(OCC#Cc4cccc5c4n(C)c(=O)n5C4CCC(=O)NC4=O)CC3)CC2)cc1NC(=O)c1cnn2ccc(N3C[C@H]4C[C@@H]3CO4)nc12 (stereo partly shown) [I-168] | > 200 | > 200 |
| COc1nn([C@H]2CC[C@H](CN3CCC(OCC#Cc4cccc5c4n(C)c(=O)n5C4CCC(=O)NC4=O)CC3)CC2)cc1NC(=O)c1cnn2ccc(N3C[C@H]4C[C@@H]3CO4)nc12 (stereo partly shown) [I-169] | > 200 | > 200 |
| Cc1ccc(-c2nn([C@H]3CC[C@H](CN4CCC(OCC#Cc5cccc6c5n(C)c(=O)n6C5CCC(=O)NC5=O)CC4)CC3)cc2NC(=O)c2cnn3cccnc23)nc1 (stereo partly shown) [I-170] | > 200 | 10 to 100 |
| Cc1ccc(-c2nn([C@H]3CC[C@H](CN4CCC(OCC#Cc5cccc6c5n(C)c(=O)n6C5CCC(=O)NC5=O)CC4)CC3)cc2NC(=O)c2cnn3cccnc23)c(F)c1 (stereo partly shown) [I-171] | > 200 | 10 to 100 |
| Cc1ccc(-c2nn([C@H]3CC[C@H](CN4CCC(OCC#Cc5cccc6c5n(C)c(=O)n6C5CCC(=O)NC5=O)CC4)CC3)cc2NC(=O)c2cnn3cccnc23)cc1 (stereo partly shown) [I-172] | > 200 | 10 to 100 |
| Cc1ccc(-c2nn([C@H]3CC[C@H](CN4CCC(OCC#Cc5cccc6c5n(C)c(=O)n6C5CCC(=O)NC5=O)CC4)CC3)cc2NC(=O)c2cnn3cccnc23)nc1 (stereo partly shown) [I-173] | > 200 | 10 to 100 |
| Cn1c(=O)n(C2CCC(=O)NC2=O)c2cccc(C#CCOC3CCN(C[C@H]4CC[C@H](n5cc(NC(=O)c6cnn7ccc(N8C[C@H]9C[C@@H]8CO9)nc67)c(C(C)(C)O)n5)CC4)CC3)c21 (stereo partly shown) [I-174] | > 200 | > 200 |
| Cn1c(=O)n(C2CCC(=O)NC2=O)c2cccc(C#CCOC3CCN(C[C@H]4CC[C@H](c5ccc(C(F)F)c(NC(=O)c6cnn7ccc(N8C[C@H]9C[C@@H]8CO9)nc67)c5)CC4)CC3)c21 (stereo partly shown) [I-175] | > 200 | > 200 |
| Cn1c(=O)n(C2CCC(=O)NC2=O)c2cccc(C#CCOC3CCN(CC4CCN(c5ccc(C(F)F)c(NC(=O)c6cnn7ccc(N8C[C@H]9C[C@@H]8CO9)nc67)c5)CC4)CC3)c21 (stereo partly shown) [I-176] | > 200 | > 200 |
| COc1ccc([C@H]2CC[C@H](CN3CCC(OCC#Cc4cccc5c4n(C)c(=O)n5C4CCC(=O)NC4=O)CC3)CC2)cc1NC(=O)c1cnn2ccc(N3C[C@H]4C[C@@H]3CO4)nc12 (stereo partly shown) [I-177] | > 200 | > 200 |
| Cn1c(=O)n(C2CCC(=O)NC2=O)c2cccc(C#CCOC3CCN(C[C@H]4CC[C@H](c5cnc(C(F)F)c(NC(=O)c6cnn7ccc(N8C[C@H]9C[C@@H]8CO9)nc67)c5)CC4)CC3)c21 (stereo partly shown) [I-178] | > 200 | > 200 |
| Cn1c(=O)n(C2CCC(=O)NC2=O)c2cccc(C#CCOC3CCN(CC4CCN(c5cnc(C(F)F)c(NC(=O)c6cnn7ccc(N8C[C@H]9C[C@@H]8CO9)nc67)c5)CC4)CC3)c21 (stereo partly shown) [I-179] | > 200 | > 200 |
| COc1ncc([C@H]2CC[C@H](CN3CCC(OCC#Cc4cccc5c4n(C)c(=O)n5C4CCC(=O)NC4=O)CC3)CC2)cc1NC(=O)c1cnn2ccc(N3C[C@H]4C[C@@H]3CO4)nc12 (stereo partly shown) [I-180] | > 200 | > 200 |
| Cn1c(=O)n(C2CCC(=O)NC2=O)c2cccc(C#CCOC3CCN(C[C@H]4CC[C@H](c5ccc(NC(=O)c6cnn7ccc(N8C[C@H]9C[C@@H]8CO9)nc67)c(C(F)F)n5)CC4)CC3)c21 (stereo partly shown) [I-181] | > 200 | > 200 |
| Cn1c(=O)n(C2CCC(=O)NC2=O)c2cccc(C#CCOC3CCN(C[C@H]4CC[C@H](c5ccc(NC(=O)c6cnn7ccc(N8C[C@H]9C[C@@H]8CO9)nc67)c(C(F)F)c5)CC4)CC3)c21 (stereo partly shown) [I-182] | > 200 | > 200 |
| COc1nc([C@H]2CC[C@H](CN3CCC(OCC#Cc4cccc5c4n(C)c(=O)n5C4CCC(=O)NC4=O)CC3)CC2)ccc1NC(=O)c1cnn2ccc(N3C[C@H]4C[C@@H]3CO4)nc12 (stereo partly shown) [I-183] | > 200 | > 200 |
| COc1cc([C@H]2CC[C@H](CN3CCC(OCC#Cc4cccc5c4n(C)c(=O)n5C4CCC(=O)NC4=O)CC3)CC2)ccc1NC(=O)c1cnn2ccc(N3C[C@H]4C[C@@H]3CO4)nc12 (stereo partly shown) [I-184] | > 200 | > 200 |

| Compound | DC50 [1] [nM] | DC50 [2] [nM] |
| --- | --- | --- |
| COc1cc2nn([C@H]3CC[C@H](CN4CCC5(CC4)CCN(c4cccc6c4n(C)c(=O)n6C4CCC(=O)NC4=O)CC5)CC3)cc2cc1NC(=O)c1cncc(C(C)(C)C#N)c1 (stereo partly shown) [I-185] | > 200 | > 200 |
| Cn1c(=O)n(C2CCC(=O)NC2=O)c2cccc(N3CCC4(CCN(C[C@H]5CC[C@H](n6cc7cc(NC(=O)c8cncc(C#N)c8)c(F)cc7n6)CC5)CC4)CC3)c21 (stereo partly shown) [I-186] | > 200 | > 200 |
| Cn1c(=O)n(C2CCC(=O)NC2=O)c2cccc(N3CCC4(CCN(C[C@H]5CC[C@H](n6cc7cc(NC(=O)c8cncc(C#N)c8)c(C(F)F)cc7n6)CC5)CC4)CC3)c21 (stereo partly shown) [I-187] | > 200 | > 200 |
| Cn1c(=O)n(C2CCC(=O)NC2=O)c2cccc(N3CCC4(CCN(C[C@H]5CC[C@@H](n6cc(NC(=O)c7cnn8ccc(N9CC%10C[C@@H]9CO%10)nc78)c(C(F)F)n6)CC5)CC4)CC3)c21 (stereo partly shown) [I-188] | < 10 | > 200 |
| Cn1c(=O)n(C2CCC(=O)NC2=O)c2cccc(N3CCN(CC4CCC(n5cc(NC(=O)c6cnn7ccc(N8CC9C[C@@H]8CO9)nc67)c(C(F)F)n5)CC4)CC3)c21 (stereo partly shown) [I-189] | 10 to 100 | > 200 |
| Cn1c(=O)n(C2CCC(=O)NC2=O)c2cccc(CN3CCN(C[C@H]4CC[C@H](n5cc(NC(=O)c6cnn7ccc(N8CC9C[C@@H]8CO9)nc67)c(C(F)F)n5)CC4)CC3)c21 (stereo partly shown) [I-190] | 10 to 100 | > 200 |
| COCc1cncc(C(=O)Nc2cc3cn([C@H]4CC[C@H](CN5CCC6(CC5)CCN(c5cccc7c5n(C)c(=O)n7C5CCC(=O)NC5=O)CC6)CC4)nc3cc2OC)c1 (stereo partly shown) [I-191] | 10 to 100 | > 200 |
| CC([C@H]1CC[C@H](n2cc(NC(=O)c3cnn4ccc(C5CC6C[C@@H]5CO6)nc34)c(C(F)F)n2)CC1)N1CCC(OCC#Cc2cccc3c2n(C)c(=O)n3C2CCC(=O)NC2=O)CC1 (stereo partly shown) [I-192] | > 200 | > 200 |
| Cn1c(=O)n(C2CCC(=O)NC2=O)c2cccc(C#CCOC3CCN(C(C#N)[C@H]4CC[C@H](n5cc(NC(=O)c6cnn7ccc(N8C[C@H]9C[C@@H]8CO9)nc67)c(C(F)F)n5)CC4)CC3)c21 (stereo partly drawn) [I-193, N-[1-[4-[cyano-[4-[3-[1-(2,6-dioxo-3-piperidyl)-3-methyl-2-oxo-benzimidazol-4-yl]prop-2-ynoxy]-1-piperidyl]methyl]cyclohexyl]-3-(difluoromethyl)pyrazol-4-yl]-5-[(1R,4R)-2-oxa-5-azabicyclo[2.2.1]heptan-5-yl]pyrazolo[1,5-a]pyrimidine-3-carboxamide] | > 200 | > 200 |
| CC([C@H]1CC[C@H](n2cc(NC(=O)c3cnn4ccc(N5C[C@H]6C[C@@H]5CO6)nc34)c(C(F)F)n2)CC1)N1CCN(CC#Cc2cccc3c2n(C)c(=O)n3C2CCC(=O)NC2=O)CC1 (stereo partly shown) [I-194] | > 200 | > 200 |
| CC([C@H]1CC[C@H](n2cc(NC(=O)c3cnn4ccc(N5C[C@H]6C[C@@H]5CO6)nc34)c(C(F)F)n2)CC1)N1CCN(CCCc2cccc3c2n(C)c(=O)n3C2CCC(=O)NC2=O)CC1 (stereo partly shown) [I-195] | > 200 | > 200 |
| Cn1c(=O)n(C2CCC(=O)NC2=O)c2cccc(C#CCN3CCN(C(C#N)[C@H]4CC[C@H](n5cc(NC(=O)c6cnn7ccc(N8C[C@H]9C[C@@H]8CO9)nc67)c(C(F)F)n5)CC4)CC3)c21 (stereo partly shown) [I-196] | > 200 | 10 to 100 |
| Cn1c(=O)n(C2CCC(=O)NC2=O)c2cccc(CCCN3CCN(C(C#N)[C@H]4CC[C@H](n5cc(NC(=O)c6cnn7ccc(N8C[C@H]9C[C@@H]8CO9)nc67)c(C(F)F)n5)CC4)CC3)c21 (stereo partly shown) [I-197] | 10 to 100 | > 200 |
| O=C1CCC(c2ccc(C#CCOC3CCN(C[C@H]4CC[C@H](n5cc(NC(=O)c6cnn7ccc(N8C[C@H]9C[C@@H]8CO9)nc67)c(C(F)F)n5)CC4)CC3)cc2)C(=O)N1 (stereo partly shown) [I-198] | 10 to 100 | 10 to 100 |
| O=C1CCC(c2cccc(C#CCOC3CCN(C[C@H]4CC[C@H](n5cc(NC(=O)c6cnn7ccc(N8C[C@H]9C[C@@H]8CO9)nc67)c(C(F)F)n5)CC4)CC3)c2)C(=O)N1 (stereo partly shown) [I-199] | > 200 | 10 to 100 |
| Cn1c(=O)n(C2CCC(=O)NC2=O)c2cccc(N3CCN([C@H]4CC[C@H](n5cc(NC(=O)c6cnn7ccc(N8C[C@H]9C[C@@H]8CO9)nc67)c(C(F)F)n5)CC4)CC3)c21 (stereo partly shown) [I-200] | 10 to 100 | > 200 |
| Cn1c(=O)n(C2CCC(=O)NC2=O)c2cccc(C3CCN(C4CCN([C@H]5CC[C@H](n6cc(NC(=O)c7cnn8ccc(N9C[C@H]%10C[C@@H]9CO%10)nc78)c(C(F)F)n6)CC5)CC4)CC3)c21 (stereo partly shown) [I-202] | < 10 | > 200 |

Source: patent publication US12091411B2, “IRAK degraders and uses thereof” (Kymera Therapeutics, Inc., priority 2022, dated 2024)
